Patent US20200282008A1, “COMPOSITIONS AND METHODS FOR LONG TERM RELEASE OF GONADOTROPIN-RELEASING HORMONE (GnRH) ANTAGONISTS” (VERU INC., priority 2017, published 2020)
Non-standard residues stand in square brackets, D forms with d. Residues, ends and D or L forms follow the SMILES beside them. dPhe(4-Cl) = N[C@H](Cc1ccc(Cl)cc1)C(=O)O; d2Nal = N[C@H](Cc1ccc2ccccc2c1)C(=O)O; dCit = NC(=O)NCCC[C@@H](N)C(=O)O; d3Pal = N[C@H](Cc1cccnc1)C(=O)O

Tested on: serum testosterone
Experiment: Second rat study: serum testosterone after cetrorelix PLGA formulations
Assay type: in vivo, rats
Procedure: In a second rat study serum testosterone and cetrorelix levels were measured over 12 weeks. […] The formulations found within Table 13 were injected in rats and then the testosterone was measured at 0, 1, 2, 8 and 24 hours and then daily until the end of the first week and then biweekly until week 4 and then weekly thereafter.
FIG. 21 compares the data from the 2nd rat and 1st dog study results for testosterone levels.

With `CC(=O)N[C@H](Cc1ccc2ccccc2c1)C(=O)N[C@H](Cc1ccc(Cl)cc1)C(=O)N[C@H](Cc1cccnc1)C(=O)N[C@@H](CO)C(=O)N[C@@H](Cc1ccc(O)cc1)C(=O)N[C@H](CCCNC(N)=O)C(=O)N[C@@H](CC(C)C)C(=O)N[C@@H](CCCNC(=N)N)C(=O)N1CCC[C@H]1C(=O)N[C@H](C)C(N)=O` [cetrorelix] (Ac-[d2Nal][dPhe(4-Cl)][d3Pal]SY[dCit]LRP[dA]-NH2) the “cetrorelix level required to inhibit testosterone production” value was 2 ng/mL.
